Columns and labels:
A498 = assay: Proliferation dose-response IC50, A498; type: cell-based; conditions: Homo sapiens, proliferative IC50, linear regression modeling of dose-response
Protocol: (§1) Error bars indicate standard deviation for n=2 replicates. […] To evaluate inhibition of SCD1 by these molecules, we used LC/MS to quantify changes in SCD1-catalyzed conversion of stearoyl-CoA to oleoyl-CoA in response to drug treatments in vitro using SCD1 protein extracted from murine liver (Figure 3c, Supplementary Figure 2g). […] Synthesis routes and spectral data including NMR and MS are also provided (Supplementary Figures 3-6).
(§2) Cells were seeded at 5,000 cells/well in clear-bottom 96-well plates in triplicate. Drug treatment was applied at 1:1000 in reduced serum conditions (3%). […] Alternatively, cells were plated 2x10^5/well in 12-well plates (Genesee Scientific) in triplicate prior to drug treatment. After 120-hour treatment, cell number was established using a Coulter Particle Counter (Beckman). Oleic acid-albumin (Sigma Aldrich) was added to media at 5µM, and was applied adjuvant to drug treatment. Drug stocks were prepared in DMSO (Sigma) at 1000x. IC50 dosing per cell line was calculated using CalcuSyn analytical software.

ACHN = assay: Proliferation dose-response IC50, ACHN; type: cell-based; conditions: Homo sapiens, proliferative IC50, linear regression modeling of dose-response
Protocol: as §1, §2

Caki1 = assay: Proliferation dose-response IC50, Caki1; type: cell-based; conditions: Homo sapiens, CAKI-1; proliferative IC50, linear regression modeling of dose-response
Protocol: as §1, §2

Caki2 = assay: Proliferation dose-response IC50, Caki2; type: cell-based; conditions: Homo sapiens, CAKI-2; proliferative IC50, linear regression modeling of dose-response
Protocol: as §1, §2

RCC cell lines = assay: Proliferation assay with exogenous oleic acid (OA) rescue; type: cell-based, Human; conditions: cells treated with proliferative IC50 dose, 72 hour, OA 5µg/mL
Text: Induction of the unfolded protein response (UPR) is a known biological response to SCD1 inhibition in tumor cells. […] The addition of exogenous OA was sufficient to reverse the activation of ATF6 (Figure 4b). Moreover, exogenous OA inhibited SSI-(1-4) mediated upregulation of the UPR markers BiP (heat shock 70 kDa protein) and CHOP (damage inducible transcript 3) protein levels in both A498 and ACHN cells (Figure 4c). Collectively these findings confirm that SSI-(1-4) reliably recapitulates the biological responses observed in tumor cells treated with known SCD1 inhibitors. […] Thus, SSI-4 is not predicted to have any major off-target effects through kinase inhibition (Supplementary Figures 7 and 8).
Results are presented as relative bioluminescence (BLI). […] Beta-actin is used as a loading control. (d) Proliferative response in patient-derived normal cells, and established tumor cell lines to treatment with MF-438 or SSI-(1-4).
Cells were seeded at 5,000 cells/well in clear-bottom 96-well plates in triplicate. Drug treatment was applied at 1:1000 in reduced serum conditions (3%). After 72 hours, cells were washed with PBS, and stored at -80 °C prior to analysis using CyQuant® Proliferation Analysis Kit (Invitrogen) er manufacturers’ protocol for relative fluorescence units. […] IC50 dosing per cell line was calculated using CalcuSyn analytical software.

SCD1 = conditions: known inhibitor, no reference given; cited from earlier work
[1] = target: T1, SCD1 protein extracted from murine liver (Mus musculus, UniProt P13516); assay: In vitro SCD1 enzymatic inhibition by LC/MS (stearoyl-CoA to oleoyl-CoA, liver microsomes); type: biochemical; conditions: n=2
T1 construct: Microsomes were isolated from murine liver using Microsome Isolation Kit (BioVision); from tissue; host or cells: murine liver microsomes
T1 sequence (P13516 1-355): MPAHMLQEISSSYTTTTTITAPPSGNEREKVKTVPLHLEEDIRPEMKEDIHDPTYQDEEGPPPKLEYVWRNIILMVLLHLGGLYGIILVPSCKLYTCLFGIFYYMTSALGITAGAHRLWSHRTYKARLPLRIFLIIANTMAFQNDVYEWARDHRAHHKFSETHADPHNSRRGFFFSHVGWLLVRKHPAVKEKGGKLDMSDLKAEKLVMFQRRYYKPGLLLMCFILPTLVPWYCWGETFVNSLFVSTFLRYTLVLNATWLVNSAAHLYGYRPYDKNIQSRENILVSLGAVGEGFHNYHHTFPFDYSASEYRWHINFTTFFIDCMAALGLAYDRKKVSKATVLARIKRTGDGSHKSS
Text: as §1, with “After synthesis feasibility and cost analysis, we synthesized 38 of the selected compounds.” for “Error bars indicate standard deviation for n=2 replicates.”
Microsomes were isolated from murine liver using Microsome Isolation Kit (BioVision) per the manufacturer protocol. […] To quantify biotransformation of ^13C18-stearoyl CoA to ^13C18-oleoyl CoA for drug treatments relative to vehicle controls, supernatants were evaluated using the LC/MS^2 acyl CoA quantitation method of Magnes et al. and adapting selected reaction monitoring (SRM) for isotope-labeled acyl CoAs. […] SRM signal areas for isotope-labeled acyl CoAs were measured relative to the heptadecanoyl CoA I.S. using XCalibur software (Thermo), and percent enzyme inhibition determined by comparing ^13C18-oleoyl CoA quantities between treatment and DMSO control assays. […]

IC50 (ACHN) | IC50 [1] | SMILES | IC50 (A498) | IC50 (Caki1) | IC50 (Caki2) | rescue of proliferation by exogenous oleic acid (OA) (RCC cell lines) | IC50 (SCD1)
0.08 µM | – | CNC(=O)COc1cncc(C(=O)N2CC[C@H](Oc3ccccc3Cl)C2)c1 [ChemBL375265, reference compound] | 5 µM | 1 µM | 0.5 µM | fully restored proliferation | 400 nM
0.006 µM | 1.1 nM | Cc1nnc(-c2ccc(N3CCC(Oc4ccccc4C(F)(F)F)CC3)nn2)s1 [MF-438, 2-methyl-5-(6-(4-(2-(trifluoromethyl)phenoxy)piperidin-1-yl)pyridazin-3-yl)-1,3,4-thiadiazole, reference compound] | 0.008 µM | 0.007 µM | 0.012 µM | fully restored proliferation | –

Reference: PMC5787466, “Accelerated bottom-up drug design platform enables the discovery of novel stearoyl-CoA desaturase 1 inhibitors for cancer therapy” (Oncotarget, 2017)
